# According to the Kinase Knowledgebase extract (Sharma et al. 2016):
# pIC50: −log10 of the molar value.
# Target: CDK2 (human) (UniProt P24941)
# Experiment: Enzyme Assay
row,Compound,pIC50
1,Cc1nn2c(Nc3ccc(F)c(Cl)c3)cc(N[C@H]3CC[C@H](N)CC3)nc2c1Br,> 4.00
2,CCOc1ccc(Nc2c(C)c(N[C@H]3CC[C@H](N)CC3)nc3c(C4CC4)cnn23)cc1,> 4.00
3,Cc1c(N[C@H]2CC[C@H](N)CC2)nc2ccnn2c1Nc1ccc(OCc2cccc(Cl)c2)cc1,> 4.00
4,CCCc1c(N[C@H]2CC[C@H](N)CC2)nc2ccnn2c1Nc1ccc(F)c(Cl)c1,> 4.00
5,Cc1c(N[C@H]2CC[C@H](N)CC2)nc2ccnn2c1Nc1ccc(-c2ccccc2O)cc1,> 4.00
6,COc1ccccc1-c1ccc(Nc2c(C)c(N[C@H]3CC[C@H](N)CC3)nc3ccnn23)cc1,> 4.00
7,Cc1c(N[C@H]2CC[C@H](N)CC2)nc2ccnn2c1Nc1ccc(OCC2CCCCN2)cc1 (stereo partly specified),> 4.00
8,CCc1c(N[C@H]2CC[C@H](N)CC2)nc2ccnn2c1Nc1cccc(Cl)c1,> 4.00
9,CC(=O)c1ccc(-c2ccc(Nc3c(C)c(N[C@H]4CCCNC4)nc4ccnn34)cc2)s1,> 4.00
10,Cc1c(N[C@H]2CC[C@H](N)CC2)nc2ccnn2c1Nc1ccc(I)cc1,> 4.00
11,CCOc1ccc(Nc2c(C)c(N[C@H]3CC[C@H](N)CC3)nc3c(N)cnn23)cc1,> 4.00
